Reference: publication PMC7901654, “Bioisosteric Discovery of NPA101.3, a Second-Generation RET/VEGFR2 Inhibitor Optimized for Single-Agent Polypharmacology” (Journal of Medicinal Chemistry, 2020)

Legend:
Assay in all cases: KinomeScan panel screen
Format in all cases: binding
IKK-beta = molecular target: T1, IKK-beta (Homo sapiens, UniProt O14920); settings: 100 nM, read-out: Percent Control
T1 construct: purchased DiscoveRx KINOMEscan (TRKA and CSF1R IC50 enzymes from Invitrogen)
Method: (§1) In addition, NPA101.3, at a concentration of 100 nM, was subjected to a kinome scan against a 96-kinase panel representing major kinome clusters (Table S2). The compound featured good selectivity, displaying strong binding activity (>90% bound) for only seven additional kinases [CSF1R (colony stimulating factor 1 receptor), FRK (fyn-related Src family tyrosine kinase), HCK (HCK proto-oncogene, Src family tyrosine kinase), LYN (lyn proto-oncogene, Src family tyrosine kinase), MKNK2 (MAPK-interacting serine/threonine kinase 2), TRKA (neurotrophic receptor tyrosine kinase 1), and TRKC (neurotrophic receptor tyrosine kinase 3)] and weak binding (>10–35% bound) for six other kinases (Table S2 and Figure S2). It is important to note that the measurement of binding affinity, which is based on control ligand displacement (Kd), is more sensitive than the in vitro kinase assay. Among the seven kinases with >90% binding, TRKA and CSF1R were selected for an in vitro kinase assay.
(§2) Supplementary Table S2: NPA101.3 KinomeScan Panel screen.
(§3) NPA101.3 was screened at a single concentration of 100 nM. Hits values lower than
(§4) 10% of control were considered strongly positive.
(§5) DiscoveRx Gene Entrez Gene Percent Compound
(§6) Symbol Symbol Control Concentration

FER = molecular target: T2, FER (Homo sapiens, UniProt P16591); settings: 100 nM, read-out: Percent Control
T2 construct: purchased DiscoveRx KINOMEscan (TRKA and CSF1R IC50 enzymes from Invitrogen)
Method: as §1, §2, §3, §4, §5, §6

EIF2AK1 = molecular target: T3, EIF2AK1 (Homo sapiens, UniProt Q9BQI3); settings: EIF2AK1, 100 nM; read-out: Percent Control
T3 construct: purchased DiscoveRx KINOMEscan (TRKA and CSF1R IC50 enzymes from Invitrogen)
Method: as §1, §2, §3, §4, §5, §6

STK33 = molecular target: T4, STK33 (Homo sapiens, UniProt Q9BYT3); settings: STK33, 100 nM; read-out: Percent Control
T4 construct: purchased DiscoveRx KINOMEscan (TRKA and CSF1R IC50 enzymes from Invitrogen)
T4 sequence (Q9BYT3 whole entry): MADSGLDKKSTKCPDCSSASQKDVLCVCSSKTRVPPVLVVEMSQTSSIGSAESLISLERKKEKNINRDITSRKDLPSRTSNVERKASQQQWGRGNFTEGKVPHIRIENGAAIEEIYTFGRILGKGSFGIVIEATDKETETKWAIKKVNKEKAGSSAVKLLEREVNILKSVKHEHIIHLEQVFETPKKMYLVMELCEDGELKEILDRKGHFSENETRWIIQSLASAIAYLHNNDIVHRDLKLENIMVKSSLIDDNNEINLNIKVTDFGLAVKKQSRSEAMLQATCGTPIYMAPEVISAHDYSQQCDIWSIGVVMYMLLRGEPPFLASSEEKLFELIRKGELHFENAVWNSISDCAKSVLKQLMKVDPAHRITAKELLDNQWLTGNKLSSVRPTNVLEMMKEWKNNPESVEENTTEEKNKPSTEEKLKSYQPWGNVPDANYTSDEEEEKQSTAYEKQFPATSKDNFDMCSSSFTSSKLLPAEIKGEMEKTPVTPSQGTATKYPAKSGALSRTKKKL
Method: as §1, §2, §3, §4, §5, §6

FYN = molecular target: T5, FYN (Homo sapiens, UniProt P06241); settings: 100 nM, read-out: Percent Control
T5 construct: purchased DiscoveRx KINOMEscan (TRKA and CSF1R IC50 enzymes from Invitrogen)
Method: as §1, §2, §3, §4, §5, §6

BTK = molecular target: T6, BTK (Homo sapiens, UniProt Q06187); settings: 100 nM, read-out: Percent Control
T6 construct: purchased DiscoveRx KINOMEscan (TRKA and CSF1R IC50 enzymes from Invitrogen)
T6 sequence (Q06187 whole entry): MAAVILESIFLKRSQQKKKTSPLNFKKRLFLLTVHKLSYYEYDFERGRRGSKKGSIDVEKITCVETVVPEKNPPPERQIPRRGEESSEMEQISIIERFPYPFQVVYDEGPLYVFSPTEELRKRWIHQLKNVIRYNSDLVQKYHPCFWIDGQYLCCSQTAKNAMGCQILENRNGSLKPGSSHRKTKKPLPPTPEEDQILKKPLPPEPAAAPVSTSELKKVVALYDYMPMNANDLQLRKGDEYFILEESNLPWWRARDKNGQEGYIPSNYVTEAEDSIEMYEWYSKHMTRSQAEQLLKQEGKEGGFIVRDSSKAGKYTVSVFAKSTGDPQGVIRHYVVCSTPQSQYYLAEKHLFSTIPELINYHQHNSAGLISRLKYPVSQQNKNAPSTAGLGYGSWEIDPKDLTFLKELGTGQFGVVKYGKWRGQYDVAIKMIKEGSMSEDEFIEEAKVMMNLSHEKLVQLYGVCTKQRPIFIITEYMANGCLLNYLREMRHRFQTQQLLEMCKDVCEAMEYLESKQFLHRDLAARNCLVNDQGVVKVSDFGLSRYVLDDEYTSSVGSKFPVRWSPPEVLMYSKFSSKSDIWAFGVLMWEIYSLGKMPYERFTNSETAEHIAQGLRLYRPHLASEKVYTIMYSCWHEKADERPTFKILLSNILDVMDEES
Method: as §1, §2, §3, §4, §5, §6

PYK2 = molecular target: T7, PYK2 (Homo sapiens, UniProt Q14289); settings: PYK2, 100 nM; read-out: Percent Control
T7 construct: purchased DiscoveRx KINOMEscan (TRKA and CSF1R IC50 enzymes from Invitrogen)
T7 sequence (Q14289 whole entry): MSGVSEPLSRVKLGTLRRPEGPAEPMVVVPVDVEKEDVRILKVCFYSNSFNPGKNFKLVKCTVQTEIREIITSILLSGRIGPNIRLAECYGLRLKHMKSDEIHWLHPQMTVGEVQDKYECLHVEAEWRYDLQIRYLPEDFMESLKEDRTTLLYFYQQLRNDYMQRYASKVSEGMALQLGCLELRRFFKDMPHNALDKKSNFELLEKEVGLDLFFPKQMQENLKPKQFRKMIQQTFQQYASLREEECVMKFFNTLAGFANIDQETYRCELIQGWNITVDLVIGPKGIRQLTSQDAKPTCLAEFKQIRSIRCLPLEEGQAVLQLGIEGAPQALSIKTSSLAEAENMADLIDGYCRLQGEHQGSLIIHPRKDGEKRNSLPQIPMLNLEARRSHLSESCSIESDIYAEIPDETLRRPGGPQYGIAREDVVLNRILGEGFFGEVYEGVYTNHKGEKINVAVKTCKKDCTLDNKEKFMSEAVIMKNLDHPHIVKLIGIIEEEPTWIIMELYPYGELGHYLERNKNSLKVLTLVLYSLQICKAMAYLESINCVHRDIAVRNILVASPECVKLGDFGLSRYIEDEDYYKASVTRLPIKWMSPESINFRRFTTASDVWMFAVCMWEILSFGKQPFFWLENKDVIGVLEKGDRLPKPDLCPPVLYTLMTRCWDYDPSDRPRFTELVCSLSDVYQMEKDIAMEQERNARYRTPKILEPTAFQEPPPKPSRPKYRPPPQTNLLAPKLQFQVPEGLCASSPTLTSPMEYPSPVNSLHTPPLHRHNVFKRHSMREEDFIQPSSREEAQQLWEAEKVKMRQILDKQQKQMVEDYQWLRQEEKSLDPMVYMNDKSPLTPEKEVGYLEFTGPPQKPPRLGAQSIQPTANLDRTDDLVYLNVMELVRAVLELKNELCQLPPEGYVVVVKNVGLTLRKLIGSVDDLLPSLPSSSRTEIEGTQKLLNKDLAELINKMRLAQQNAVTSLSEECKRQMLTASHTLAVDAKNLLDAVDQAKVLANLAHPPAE
Method: as §1, §2, §3, §4, §5, §6

BRSK2 = molecular target: T8, BRSK2 (Homo sapiens, UniProt Q8IWQ3); settings: BRSK2, 100 nM; read-out: Percent Control
T8 construct: purchased DiscoveRx KINOMEscan (TRKA and CSF1R IC50 enzymes from Invitrogen)
Method: as §1, §2, §3, §4, §5, §6

MET = molecular target: T9, MET (Homo sapiens, UniProt P08581); settings: 100 nM, read-out: Percent Control
T9 construct: purchased DiscoveRx KINOMEscan (TRKA and CSF1R IC50 enzymes from Invitrogen)
Method: as §1, §2, §3, §4, §5, §6

HCK = molecular target: T10, HCK (Homo sapiens, UniProt P08631); settings: 100 nM
T10 construct: purchased DiscoveRx KINOMEscan (TRKA and CSF1R IC50 enzymes from Invitrogen)
T10 sequence (P08631 whole entry): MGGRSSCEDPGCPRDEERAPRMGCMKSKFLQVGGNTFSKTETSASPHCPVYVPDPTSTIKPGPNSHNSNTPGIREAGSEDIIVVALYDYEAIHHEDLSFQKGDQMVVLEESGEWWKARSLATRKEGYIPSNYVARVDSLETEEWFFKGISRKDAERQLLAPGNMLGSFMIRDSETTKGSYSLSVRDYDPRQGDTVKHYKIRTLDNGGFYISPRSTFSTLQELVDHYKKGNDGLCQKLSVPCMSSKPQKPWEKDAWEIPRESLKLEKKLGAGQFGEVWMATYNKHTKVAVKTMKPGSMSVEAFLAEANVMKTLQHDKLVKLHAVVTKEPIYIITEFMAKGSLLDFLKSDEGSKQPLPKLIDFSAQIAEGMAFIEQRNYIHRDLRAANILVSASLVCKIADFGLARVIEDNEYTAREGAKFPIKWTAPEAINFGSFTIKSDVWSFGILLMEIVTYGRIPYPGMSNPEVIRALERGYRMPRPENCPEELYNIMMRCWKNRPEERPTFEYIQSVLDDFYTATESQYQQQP
Method: as §1, §2, §3, §4, §5, §6

MTOR = molecular target: T11, MTOR (Homo sapiens, UniProt P42345); settings: 100 nM, read-out: Percent Control
T11 construct: purchased DiscoveRx KINOMEscan (TRKA and CSF1R IC50 enzymes from Invitrogen)
Method: as §1, §2, §3, §4, §5, §6

HIPK2 = molecular target: T12, HIPK2 (Homo sapiens, UniProt Q9H2X6); settings: HIPK2, 100 nM; read-out: Percent Control
T12 construct: purchased DiscoveRx KINOMEscan (TRKA and CSF1R IC50 enzymes from Invitrogen)
Method: as §1, §2, §3, §4, §5, §6

SLK = molecular target: T13, SLK (Homo sapiens, UniProt Q9H2G2); settings: 100 nM, read-out: Percent Control
T13 construct: purchased DiscoveRx KINOMEscan (TRKA and CSF1R IC50 enzymes from Invitrogen)
Method: as §1, §2, §3, §4, §5, §6

WNK1 = molecular target: T14, WNK1 (Homo sapiens, UniProt Q9H4A3); settings: WNK1, 100 nM; read-out: Percent Control
T14 construct: purchased DiscoverX (outsourced KINOMEscan)
Method: as §1, §2, §3, §4, §5, §6

MELK = molecular target: T15, MELK (Homo sapiens, UniProt Q14680); settings: 100 nM, read-out: Percent Control
T15 construct: purchased DiscoveRx KINOMEscan (TRKA and CSF1R IC50 enzymes from Invitrogen)
Method: as §1, §2, §3, §4, §5, §6

[1] = molecular target: T16, JAK2(JH1domain-catalytic) (Homo sapiens, UniProt O60674); settings: 100 nM, read-out: Percent Control
T16 construct: JAK2(JH1domain-catalytic); purchased DiscoveRx KINOMEscan (TRKA and CSF1R IC50 enzymes from Invitrogen)
Method: as §1, §2, §3, §4, §5, §6

LYN = molecular target: T17, LYN (Homo sapiens, UniProt P07948); settings: 100 nM
T17 construct: purchased DiscoveRx KINOMEscan (TRKA and CSF1R IC50 enzymes from Invitrogen)
T17 sequence (P07948 whole entry): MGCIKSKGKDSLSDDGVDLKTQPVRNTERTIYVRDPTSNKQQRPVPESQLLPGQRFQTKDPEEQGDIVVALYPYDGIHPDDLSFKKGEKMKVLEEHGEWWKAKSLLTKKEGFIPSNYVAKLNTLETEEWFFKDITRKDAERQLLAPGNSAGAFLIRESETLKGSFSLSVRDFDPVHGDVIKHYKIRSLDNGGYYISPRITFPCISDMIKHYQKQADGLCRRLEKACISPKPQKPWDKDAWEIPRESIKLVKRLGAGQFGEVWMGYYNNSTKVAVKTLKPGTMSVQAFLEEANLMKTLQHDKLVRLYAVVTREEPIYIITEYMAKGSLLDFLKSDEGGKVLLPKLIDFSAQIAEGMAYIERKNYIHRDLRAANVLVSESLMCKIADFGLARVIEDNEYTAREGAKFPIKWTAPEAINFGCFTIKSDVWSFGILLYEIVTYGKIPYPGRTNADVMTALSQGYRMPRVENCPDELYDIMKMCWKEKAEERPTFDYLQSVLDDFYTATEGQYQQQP
Method: as §1, §2, §3, §4, §5, §6

PRKD2 = molecular target: T18, PRKD2 (Homo sapiens, UniProt Q9BZL6); settings: PRKD2, 100 nM; read-out: Percent Control
T18 construct: purchased DiscoveRx KINOMEscan (TRKA and CSF1R IC50 enzymes from Invitrogen)
Method: as §1, §2, §3, §4, §5, §6

PDPK1 = molecular target: T19, PDPK1 (Homo sapiens, UniProt O15530); settings: PDPK1, 100 nM; read-out: Percent Control
T19 construct: purchased DiscoveRx KINOMEscan (TRKA and CSF1R IC50 enzymes from Invitrogen)
T19 sequence (O15530 whole entry): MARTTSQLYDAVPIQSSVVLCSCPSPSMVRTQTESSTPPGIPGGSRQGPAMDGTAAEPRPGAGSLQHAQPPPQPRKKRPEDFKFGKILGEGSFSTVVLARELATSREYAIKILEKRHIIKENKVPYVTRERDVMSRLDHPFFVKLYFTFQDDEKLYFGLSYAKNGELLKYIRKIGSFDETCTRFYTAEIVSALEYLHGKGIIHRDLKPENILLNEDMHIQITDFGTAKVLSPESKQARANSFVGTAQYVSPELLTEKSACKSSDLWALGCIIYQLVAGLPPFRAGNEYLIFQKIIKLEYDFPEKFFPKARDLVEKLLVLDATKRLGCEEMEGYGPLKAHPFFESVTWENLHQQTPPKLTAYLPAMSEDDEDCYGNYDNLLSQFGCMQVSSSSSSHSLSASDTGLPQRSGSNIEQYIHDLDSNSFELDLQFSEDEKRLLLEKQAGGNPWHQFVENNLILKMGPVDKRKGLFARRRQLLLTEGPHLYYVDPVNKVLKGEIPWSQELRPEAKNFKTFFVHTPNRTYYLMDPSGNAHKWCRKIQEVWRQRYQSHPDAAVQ
Method: as §1, §2, §3, §4, §5, §6

LRRK2 = molecular target: T20, LRRK2 (Homo sapiens, UniProt Q5S007); settings: LRRK2, 100 nM; read-out: Percent Control
T20 construct: purchased DiscoveRx KINOMEscan (TRKA and CSF1R IC50 enzymes from Invitrogen)
Method: as §1, §2, §3, §4, §5, §6

CAMK1 = molecular target: T21, CAMK1 (Homo sapiens, UniProt Q14012); settings: CAMK1, 100 nM; read-out: Percent Control
T21 construct: purchased DiscoveRx KINOMEscan (TRKA and CSF1R IC50 enzymes from Invitrogen)
T21 sequence (Q14012 whole entry): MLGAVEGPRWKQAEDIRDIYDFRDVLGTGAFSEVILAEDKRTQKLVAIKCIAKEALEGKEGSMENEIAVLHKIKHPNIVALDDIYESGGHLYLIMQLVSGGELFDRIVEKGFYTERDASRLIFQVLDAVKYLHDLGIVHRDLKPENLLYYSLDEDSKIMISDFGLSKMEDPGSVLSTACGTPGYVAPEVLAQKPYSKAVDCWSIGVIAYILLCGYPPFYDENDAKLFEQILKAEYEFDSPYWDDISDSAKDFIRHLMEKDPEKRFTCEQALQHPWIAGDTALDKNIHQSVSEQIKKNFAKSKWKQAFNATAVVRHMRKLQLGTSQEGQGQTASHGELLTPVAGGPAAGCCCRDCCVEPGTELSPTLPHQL
Method: as §1, §2, §3, §4, §5, §6

CAMK2A = molecular target: T22, CAMK2A (Homo sapiens, UniProt Q9UQM7); settings: 100 nM, read-out: Percent Control
T22 construct: purchased DiscoveRx KINOMEscan (TRKA and CSF1R IC50 enzymes from Invitrogen)
Method: as §1, §2, §3, §4, §5, §6

AURKB = molecular target: T23, AURKB (Homo sapiens, UniProt Q96GD4); settings: 100 nM, read-out: Percent Control
T23 construct: purchased DiscoveRx KINOMEscan (TRKA and CSF1R IC50 enzymes from Invitrogen)
Method: as §1, §2, §3, §4, §5, §6

AXL = molecular target: T24, AXL (Homo sapiens, UniProt P30530); settings: 100 nM, read-out: Percent Control
T24 construct: purchased DiscoveRx KINOMEscan (TRKA and CSF1R IC50 enzymes from Invitrogen)
Method: as §1, §2, §3, §4, §5, §6

TRKA = molecular target: T25, TRKA (Homo sapiens, UniProt P04629); settings: 100 nM
T25 construct: purchased Invitrogen
T25 sequence (P04629 33-796): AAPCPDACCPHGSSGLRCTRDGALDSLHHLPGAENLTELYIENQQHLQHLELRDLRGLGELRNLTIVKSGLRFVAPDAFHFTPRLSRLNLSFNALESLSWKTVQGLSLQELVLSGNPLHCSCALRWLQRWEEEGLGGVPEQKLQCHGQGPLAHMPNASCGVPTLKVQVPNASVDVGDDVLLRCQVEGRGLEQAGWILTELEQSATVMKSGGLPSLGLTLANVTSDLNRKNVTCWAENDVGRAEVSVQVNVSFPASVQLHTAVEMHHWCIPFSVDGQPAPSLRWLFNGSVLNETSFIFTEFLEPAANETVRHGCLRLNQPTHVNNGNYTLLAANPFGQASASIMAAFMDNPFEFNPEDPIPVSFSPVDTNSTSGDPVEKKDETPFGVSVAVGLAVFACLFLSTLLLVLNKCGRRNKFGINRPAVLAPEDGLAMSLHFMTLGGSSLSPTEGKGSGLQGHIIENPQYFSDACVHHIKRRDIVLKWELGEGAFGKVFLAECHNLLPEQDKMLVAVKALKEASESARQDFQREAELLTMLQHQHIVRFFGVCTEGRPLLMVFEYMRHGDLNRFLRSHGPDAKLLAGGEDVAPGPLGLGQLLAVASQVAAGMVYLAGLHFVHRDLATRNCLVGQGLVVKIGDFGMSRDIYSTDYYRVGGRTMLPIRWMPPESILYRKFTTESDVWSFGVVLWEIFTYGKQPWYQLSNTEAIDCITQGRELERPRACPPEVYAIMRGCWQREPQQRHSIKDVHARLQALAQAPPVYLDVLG
Method: as §1, §2, §3, §4, §5, §6

CDK9 = molecular target: T26, CDK9 (Homo sapiens, UniProt P50750); settings: CDK9, 100 nM; read-out: Percent Control
T26 construct: purchased DiscoveRx KINOMEscan (TRKA and CSF1R IC50 enzymes from Invitrogen)
Method: as §1, §2, §3, §4, §5, §6

PCTK1 = molecular target: T27, PCTK1 (Homo sapiens, UniProt Q00536); settings: PCTK1, 100 nM; read-out: Percent Control
T27 construct: purchased DiscoveRx KINOMEscan (TRKA and CSF1R IC50 enzymes from Invitrogen)
Method: as §1, §2, §3, §4, §5, §6

BUB1 = molecular target: T28, BUB1 (Homo sapiens, UniProt O43683); settings: BUB1, 100 nM; read-out: Percent Control
T28 construct: purchased DiscoveRx KINOMEscan (TRKA and CSF1R IC50 enzymes from Invitrogen)
Method: as §1, §2, §3, §4, §5, §6

TLK1 = molecular target: T29, TLK1 (Homo sapiens, UniProt Q9UKI8); settings: TLK1, 100 nM; read-out: Percent Control
T29 construct: purchased DiscoveRx KINOMEscan (TRKA and CSF1R IC50 enzymes from Invitrogen)
Method: as §1, §2, §3, §4, §5, §6

ALK = molecular target: T30, ALK (Homo sapiens, UniProt Q9UM73); settings: 100 nM, read-out: Percent Control
T30 construct: purchased DiscoveRx KINOMEscan (TRKA and CSF1R IC50 enzymes from Invitrogen)
Method: as §1, §2, §3, §4, §5, §6

MLK2 = molecular target: T31, MLK2 (Homo sapiens, UniProt Q02779); settings: MLK2, 100 nM; read-out: Percent Control
T31 construct: purchased DiscoveRx KINOMEscan (TRKA and CSF1R IC50 enzymes from Invitrogen)
Method: as §1, §2, §3, §4, §5, §6

Work on `CC(C)(C)c1cc(NC(=O)Cc2ccc(-n3cnc4cc(-c5ccc(S(C)(=O)=O)cc5)ccc43)cc2)no1` [NPA101.3] yielded a remaining binding at 0.1 µM (IKK-beta) of 100%, a remaining binding at 0.1 µM (FER) of 96% and a remaining binding at 0.1 µM (EIF2AK1) of 99%. It also gave a remaining binding at 0.1 µM (STK33) of 83%, a remaining binding at 0.1 µM (FYN) of 27% and a remaining binding at 0.1 µM (BTK) of 93%. It also gave a remaining binding at 0.1 µM (PYK2) of 95%, a remaining binding at 0.1 µM (BRSK2) of 100% and a remaining binding at 0.1 µM (MET) of 79%. For the same compound, the “binding (% bound)” value (HCK) was > 90 % bound, the remaining binding at 0.1 µM (HCK; HCK, read-out: Percent Control) was 6.5% and the remaining binding at 0.1 µM (MTOR) was 97%. It also gave a remaining binding at 0.1 µM (HIPK2) of 98%, a remaining binding at 0.1 µM (SLK) of 35% and a remaining binding at 0.1 µM (WNK1) of 93%. For the same compound, the remaining binding at 0.1 µM (MELK) was 83%, the remaining binding at 0.1 µM [1] was 100% and the “binding (% bound)” value (LYN) was > 90 % bound. The remaining binding at 0.1 µM (LYN; LYN, read-out: Percent Control) was 2.8%, the remaining binding at 0.1 µM (PRKD2) was 100% and the remaining binding at 0.1 µM (PDPK1) was 96%. The remaining binding at 0.1 µM (LRRK2) was 100%, the remaining binding at 0.1 µM (CAMK1) was 95% and the remaining binding at 0.1 µM (CAMK2A) was 98%. The remaining binding at 0.1 µM (AURKB) was 49%, the remaining binding at 0.1 µM (AXL) was 62% and the “binding (% bound)” value (TRKA) was > 90 % bound. For the same compound, the remaining binding at 0.1 µM (TRKA; TRKA, read-out: Percent Control) was 1.3%, the remaining binding at 0.1 µM (CDK9) was 100% and the remaining binding at 0.1 µM (PCTK1) was 89%. The remaining binding at 0.1 µM (BUB1) was 100%, the remaining binding at 0.1 µM (TLK1) was 100% and the remaining binding at 0.1 µM (ALK) was 93%. It also gave a remaining binding at 0.1 µM (MLK2) of 100%.
